From US10544186B2, “Process for the synthesis of amide bonds with the aid of novel catalysts” (Merck Patent GmbH, priority 2016, dated 2020)
Read-outs that look alike come from different tables or passages of the source.

Assay: Solubility of the amide linking reagents in organic solvents
Format: physicochemical
Conditions: for solubility: organic solvent or mixture, thermodynamic from solid
Procedure: All solubility determinations are carried out in a tared gas-tight 4 ml bottle with magnetic stirrer bar. The amide linking reagent (at least 5 mg) is weighed out and a certain amount of the solvent to be investigated is added. The mixture is stirred for 2-5 minutes. If undissolved solid is still present, solvent (50-100 μl) is additionally added, and the mixture is stirred again. As soon as a clear solution is present, the experiment is terminated.

[1] = solvent 9CH2Cl2:1CH3CN, read-out: solubility in 9CH2Cl2:1CH3CN
[2] = solvent CH2Cl2, read-out: solubility in CH2Cl2
[3] = solvent CH3CN, read-out: solubility in CH3CN
[4] = solvent DMF, read-out: solubility in DMF
[5] = solvent Hexane, read-out: solubility in Hexane
[6] = solvent THF, read-out: solubility in THF
[7] = solvent Toluene, read-out: solubility in Toluene

Row | Compound | solubility in the nonpolar solvents hexane and toluene compared with the BF4/PF6 analogue (hexane and toluene) | solubility [1] | solubility [2] | solubility [3] | solubility [4] | solubility [5] | solubility [6] | solubility [7] | solubility in 9CH2Cl2:1CH3CN (solvent 9CH2Cl2:1CH3CN) | solubility in CH2Cl2 (solvent CH2Cl2) | solubility in CH3CN (solvent CH3CN) | solubility in DMF (solvent DMF) | solubility in Hexane (solvent Hexane) | solubility in THF (solvent THF) | solubility in Toluene (solvent Toluene)
1 | CCOC(=O)/C(C#N)=N/OC(N1CCOCC1)=[N+](C)C [COMU-FAP, (1-Cyano-2-ethoxy-2-oxoethylideneaminooxy)dimethylaminomorpholinocarbenium tris(pentafluoroethyl)trifluorophosphate] | solubility improvement | > 2000 mg/mL | 180 mg/mL | 905 mg/mL | > 1500 mg/mL | 2.1 mg/mL | 349 mg/mL | 4.5 mg/mL | – | – | – | – | – | – | –
2 | (7-Azabenzotriazol-1-yloxy)tris(pyrrolidino)phosphonium tris(pentafluoroethyl)trifluorophosphate [PyAOP-FAP] | – | – | – | – | – | – | – | – | >2000 mg/mL | >2000 mg/mL | >2000 mg/mL | >2000 mg/mL | <1.2 mg/mL | >2000 mg/mL | –
3 | O-Pentafluorophenyl-N,N,N′,N′-tetramethyluronium tris(pentafluoroethyl)trifluorophosphate [PfTU-FAP] | – | – | – | – | – | – | – | – | >2000 mg/mL | 1000 mg/mL | >2000 mg/mL | >2000 mg/mL | <1.2 mg/mL | 1000 mg/mL | <1.2 mg/mL
4 | S-(1-Oxido-2-pyridyl)-N,N,N′,N′-tetramethylthiouronium tris(pentafluoroethyl)trifluorophosphate [OTT-FAP] | – | – | – | – | – | – | – | – | >2000 mg/mL | 690 mg/mL | >2000 mg/mL | >2000 mg/mL | <1.2 mg/mL | 1400 mg/mL | <1.2 mg/mL
5 | CN(C)C(ON1C(=O)CCC1=O)=[N+](C)C.F[B-](F)(F)F [TSTU, O—(N-succinimidyl)-N,N,N′,N′-tetramethyluronium tetrafluoroborate, reference compound] | – | – | – | – | – | – | – | – | 2.9 mg/mL | <1.2 mg/mL | 265 mg/mL | 220 mg/mL | <1.2 mg/mL | <1.2 mg/mL | <1.2 mg/mL
6 | [O-][n+]1nn(C(N2CCCC2)=[N+]2CCCC2)c2ccccc21 [BPyU-FAP, 1-(Pyrrolidino(pyrrolidinium-1-ylidene)methyl)-1H-benzo[d]-1,2,3-triazole 3-oxide tris(pentafluoroethyl)trifluorophosphate] | – | 190 mg/mL | 57 mg/mL | > 1020 mg/mL | > 1100 mg/mL | < 1.2 mg/mL | 510 mg/mL | < 1.2 mg/mL | – | – | – | – | – | – | –
7 | F[P-](F)(F)(F)(F)F.c1cnc2c(c1)nnn2O[P+](N1CCCC1)(N1CCCC1)N1CCCC1 [PyAOP, (7-azabenzotriazol-1-yloxy)tris(pyrrolidino)phosphonium hexafluorophosphate, reference compound] | – | 670 mg/mL | 1000 mg/mL | 1000 mg/mL | 670 mg/mL | < 1.2 mg/mL | 6 mg/mL | < 1.2 mg/mL | – | – | – | – | – | – | –
8 | CN(C)[P+](On1nnc2ccccc21)(N(C)C)N(C)C.F[P-](F)(F)(F)(F)F [BOP, (benzotriazol-1-yloxy)tris(dimethylamino)phosphonium hexafluorophosphate, reference compound] | – | > 335 mg/mL | > 380 mg/mL | 510 mg/mL | 660 mg/mL | < 1.2 mg/mL | < 4.2 mg/mL | < 1.2 mg/mL | – | – | – | – | – | – | –
9 | (Benzotriazol-1-yloxy)tris(dimethylamino)phosphonium tris(pentafluoroethyl)trifluorophosphate [BOP-FAP] | – | – | – | – | – | – | – | – | >800 mg/mL | >1040 mg/mL | >700 mg/mL | >1100 mg/mL | <1.2 mg/mL | >1200 mg/mL | <1.2 mg/mL
10 | CCOC(=O)C(C#N)=NO[C+](N(C)C)N1CCOCC1.F[P-](F)(F)(F)(F)F [COMU, (1-cyano-2-ethoxy-2-oxoethylideneaminooxy)dimethylaminomorpholinocarbenium hexafluorophosphate, reference compound] | – | 294 mg/mL | 82 mg/mL | 565 mg/mL | 530 mg/mL | < 1.2 mg/mL | 4.1 mg/mL | 3.2 mg/mL | – | – | – | – | – | – | –
11 | (Benzotriazol-1-yloxy)tris(pyrrolidino)phosphonium tris(pentafluoroethyl)trifluorophosphate [PyBOP-FAP] | – | – | – | – | – | – | – | – | >1500 mg/mL | >1650 mg/mL | >1550 mg/mL | >1550 mg/mL | <1.2 mg/mL | >1500 mg/mL | 5.0 mg/mL
12 | 1-(Dimethylamino(dimethylammonium-1-yliden)methyl)-1H-azabenzo-[d][1,2,3]triazole 3-oxide tris(pentafluoroethyl)trifluorophosphate [ATU-FAP] | – | – | – | – | – | – | – | – | 67 mg/mL | <1.2 mg/mL | >2000 mg/mL | >2000 mg/mL | <1.2 mg/mL | 670 mg/mL | <1.2 mg/mL
13 | CN(C)C(On1nnc2ccccc2c1=O)=[N+](C)C.F[B-](F)(F)F [HDBTU, O-(3,4-dihydro-4-oxo-1,2,3-benzotriazin-3-yl)-N,N,N′,N′-tetramethyluronium tetrafluoroborate, reference compound] | – | 17 mg/mL | 3.75 mg/mL | 240 mg/mL | 250 mg/mL | < 1.2 mg/mL | < 3.3 mg/mL | < 1.2 mg/mL | – | – | – | – | – | – | –
14 | O-(3,4-Dihydro-4-oxo-1,2,3-benzotriazin-3-yl)-N,N,N,N′-tetramethyluronium tris(pentafluoroethyl)trifluorophosphate [DBTU-FAP] | – | – | – | – | – | – | – | – | 480 mg/mL | >780 mg/mL | >860 mg/mL | >1125 mg/mL | <1.2 mg/mL | >780 mg/mL | <1.2 mg/mL
15 | CN(C)C(n1n[n+]([O-])c2ccccc21)=[N+](C)C.F[P-](F)(F)(F)(F)F [HBTU, 1-(dimethylamino(dimethylamonium-1-ylidene)methyl)-1H-benzo[d][1,2,3]triazole 3-oxide hexafluorophosphate, reference compound] | – | – | – | – | – | – | – | – | <2.8 mg/mL | <1.1 mg/mL | 124 mg/mL | 200 mg/mL | <1.2 mg/mL | <3.6 mg/mL | <1.2 mg/mL
16 | CN(C)C(Sc1cccc[n+]1[O-])=[N+](C)C.F[P-](F)(F)(F)(F)F [HOTT, S-(1-oxido-2-pyridyl)-N,N,N′,N′-tetramethylthiouronium hexafluorophosphate, reference compound] | – | 180 mg/mL | 59 mg/mL | 810 mg/mL | 690 mg/mL | < 1.2 mg/mL | < 1.2 mg/mL | < 1.2 mg/mL | – | – | – | – | – | – | –
17 | 1-(Dimethylamino(dimethylammonium-1-ylidene)methyl)-1H-benzo[d]-1,2,3-triazole 3-oxide tris(pentafluoroethyl)trifluorophosphate [BTU-FAP] | – | – | – | – | – | – | – | – | 120 mg/mL | 6.9 mg/mL | >1040 mg/mL | >1200 mg/mL | <1.2 mg/mL | 364 mg/mL | <1.2 mg/mL
